# Source: patent US6197568A (priority 1998, dated 2001)
# Assays:
# [1] = molecular target: T1, Recombinant dengue 2 virus envelope protein (Dengue virus type 2, UniProt P27914); test: Envelope protein binding assay with competitive antagonists, Vero cells, flow cytometry; type: cell-based
# T1 construct: extending from the start codon to the beginning of the transmembrane region (nucleotides 1 to 1272); CD5 signal peptide (N); made in house; host or cells: COS-7 cells (transfected; purified from cell lysate on protein A)
# Description: Panels A-D: Competitive antagonists. Recombinant dengue 2 virus envelope protein was co-incubated with Vero cells in the presence of potential competitive antagonists, and the degree of binding was quantitated by flow cytometry. Abscissa: Competitive antagonist. Binding of envelope protein without antagonist is indicated by dengue Env column. Background binding (cells incubated with normal human IgG instead of envelope protein) is indicated by Control IgG column. Ordinate: Median fluorescence intensity derived from flow cytometry histograms for each sample.
# Vero cells were detached from their culture surface without proteases (incubated in cation-free phosphate buffered saline (PBS, Gibco-BRL) with 5 mM EDTA, 10 min. 37° C., washed, and incubated with envelope protein (10 μg/ml) and competitive antagonists (10 μg/ml unless otherwise indicated) in cation containing PBS with 1% normal goat serum (Gibco-BRL), for 1 hour at 4° C. Cells were washed two times, incubated with R-phycoerythrin labeled Fab2 fragment of affinity purified goat antibody to human IgG Fc (5 μg/ml, Jackson Labs.) for 1 hour at 4° C., and washed two times. Cellular fluorescence and forward angle light scatter were quantitated by flow cytometry (FACScan, Becton Dickinson). A minimum of 10,000 cells was assessed from each treatment group. Data were accumulated only for viable cells; non-viable cells were excluded from analysis on the basis of low forward angle light scatter. Results were expressed as frequency histograms of fluorescence per cell. A value for median fluorescence intensity was derived from the fluorescence frequency histograms for each sample, and used to compare fluorescence between samples. In each experiment, controls consisted of untreated cells, cells incubated with only the secondary fluorochrome-labeled antibody, and cells incubated with normal human IgG followed by the secondary fluorochrome-labeled antibody.
# Chondroitin sulfate (CS) from bovine trachea, dermatan sulfate (DS) from bovine mucosa, heparan sulfate (HS) from bovine kidney, heparin from bovine lung, keratan sulfate (KS) from bovine cornea, and dextran sulfate (DexS) (MW 5×105) were obtained from Sigma Chemical Co. and used at a concentration of 10 μg/ml.
# [2] = system: dengue 2 New Guinea C strain virus; test: Infectivity assay, dengue virus infection of Vero cells (cytopathic effect); type: cell-based, dengue 2 virus
# [3] = system: Human umbilical vein endothelial cells
molecule,measurement,setting,value
Cc1ccc(C(=O)Nc2ccc(S(=O)(=O)O)c3cc(S(=O)(=O)O)cc(S(=O)(=O)O)c23)cc1NC(=O)c1cccc(NC(=O)Nc2cccc(C(=O)Nc3cc(C(=O)Nc4ccc(S(=O)(=O)O)c5cc(S(=O)(=O)O)cc(S(=O)(=O)O)c45)ccc3C)c2)c1 [Suramin],inhibition of envelope protein binding by polyanionic compounds,[1],inhibited envelope protein binding
same,effect on infectious titer,"[2]; Vero cells incubated with compound, washed before exposure to virus",no effect on infectious titer
same,prevention of dengue virus infection of Vero cells,"[2]; high doses (0-2.5 mg/ml), compound incubated with virus",completely protective at high doses
[Na+].[O-][Cl+2]([O-])[O-] [sodium chlorate],envelope protein binding after sulfation inhibition,Vero cells,complete loss of binding
same,envelope protein binding after sulfation inhibition,[3],dose dependent partial inhibition of binding
dextran sulfate [DexS],inhibition of envelope protein binding to Vero cells (competitive antagonist),[1]; antagonist 10 μg/ml,no effect
same,inhibition of envelope protein binding to Vero cells (competitive antagonist),[1]; concentrations up to 30 μg/ml,no inhibitory effect
sulfated lactobionic acid,inhibition of envelope protein binding by polyanionic compounds,[1],inhibited envelope protein binding
